Key:
mouse TP receptor [1] = molecular target: T1, mouse TP receptor (Mus musculus, UniProt P30987); assay: IP1 functional HTRF assay, mouse TP receptor; assay type: cell-based; details: I-BOP stimulated IP1
T1 construct: expressed in transfected cells
T1 sequence (P30987 1-341): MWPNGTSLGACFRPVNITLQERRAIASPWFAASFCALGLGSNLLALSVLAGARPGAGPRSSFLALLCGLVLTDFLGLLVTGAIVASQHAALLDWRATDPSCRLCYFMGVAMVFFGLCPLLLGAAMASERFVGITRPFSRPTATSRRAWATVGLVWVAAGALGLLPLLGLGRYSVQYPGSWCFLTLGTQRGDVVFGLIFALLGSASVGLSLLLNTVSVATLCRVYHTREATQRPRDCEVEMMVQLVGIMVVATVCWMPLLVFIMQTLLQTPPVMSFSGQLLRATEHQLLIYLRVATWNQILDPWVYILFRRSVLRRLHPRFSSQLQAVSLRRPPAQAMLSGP
Experimental: (§1) Functional activity of the TP receptor was measured by homogenous time-resolved fluorescence (HTRF) (IP-One Tb, Cisbio, Bedford, Mass., USA). QBI-HEK 293A (MP Biomedicals, Solon, Ohio, USA) cells were transfected with human TP receptor or mouse TP receptor cDNAs cloned into the pcDNA5/TO vector (Invitrogen, Carlsbad, Calif., USA), and stable transformants were selected. Cells were plated at 200,000 cells/mL in DMEM containing 4.5 g/L glucose (Invitrogen, Carlsbad, Calif., USA), 10% fetal bovine serum, L-glutamine, and penicillin/streptomycin into 384-well plates (Grenier Bio-One, Monroe, N.C., USA), followed by incubation for 16 hours at 37° C. with 5% CO2. Culture media was removed and cells were then incubated for 15 min at 37° C. with 5% CO2 in 10 mM Hepes, 1 mM CaCl2, 0.4 mM MgCl2, 4.2 mM KCl, 146 mM NaCl, 5.5 mM glucose, 50 mM LiCl, pH 7.4 (stimulation buffer) containing varying concentrations of test antagonist. I-BOP ([1S-[1α,2α(Z),3β(1E,3S*),4α]]-7-[3-[3-hydroxy-4-(4-iodophenoxy)-1-butenyl]-7-oxabicyclo[2.2.1]hept-2-yl]-5-heptenoic acid) (Cayman Chemicals, Ann Arbor, Mich., USA) was added at a final concentration of 1.6 nM in stimulation buffer and incubated for 1 hour at 37° C. with 5% CO2. […] Plates were then read on a Spectramax M5 microplate reader (Molecular Devices, Sunnyvale, Calif., USA). Data are expressed as the ratio of 665 nm/620 nm fluorescence. […]

[2] = Pro-drug study: plasma levels of compound and carboxylic acid hydrolysis product (51280) by LC-MS/MS; assay type: in vivo; details: female mice, 5 mg/kg, 1 h after injection
Experimental: Ester and amide examples can serve as pro-drugs to release the potent carboxylic acid TP receptor antagonist CNDR-51280. Compounds in were administered at 5 mg/kg to female mice, and levels of the compound and the carboxylic acid hydrolysis product (51280) were evaluated by LC-MS/MS 1 h after injection (Table 3).

human TP receptor [3] = molecular target: T2, human TP receptor (Homo sapiens, UniProt P21731); assay: Radioligand binding assay (3H-SQ29,548), human TP receptor; details: hTP receptor
T2 construct: expressed in transfected cells
T2 sequence (P21731 1-343): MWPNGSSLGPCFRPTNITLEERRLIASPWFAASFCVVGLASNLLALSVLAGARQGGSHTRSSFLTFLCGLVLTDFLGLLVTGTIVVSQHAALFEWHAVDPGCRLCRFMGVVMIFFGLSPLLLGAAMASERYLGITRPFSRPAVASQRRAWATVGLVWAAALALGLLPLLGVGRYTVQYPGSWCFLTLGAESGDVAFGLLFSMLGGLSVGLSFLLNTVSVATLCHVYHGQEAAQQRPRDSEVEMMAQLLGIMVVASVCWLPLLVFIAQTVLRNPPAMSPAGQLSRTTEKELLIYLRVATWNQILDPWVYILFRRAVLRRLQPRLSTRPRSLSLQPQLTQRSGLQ
Experimental: (§2) QBI-HEK 293A cells expressing human or mouse TxA2 (TP) receptor were grown as described previously and harvested in phosphate-buffered saline with 1 mM EDTA. The cell pellet was homogenized in a glass homogenizer in 20 mM Hepes, 1 mM EGTA, 0.5 mM DTT with protease inhibitor cocktail. The homogenate was initially centrifuged at 1000×g for 10 minutes at 8° C. to remove cell debris. The homogenate was then centrifuged in a Beckman L8-70M ultracentrifuge (Beckman-Coulter, Brea, Calif., USA) at 21,000 rpm for 30 minutes at 4° C., and the pellet was resuspended in 20 mM Hepes, 1 mM EGTA, 100 mM NaCl. Membrane preparations were normalized to protein level as determined with a BCA assay (ThermoFisher, Rockland, Ill.) and stored at −80° C.
(§3) Test antagonists were incubated at 10 different concentrations with 25 μg membrane and 25 nM ^3H-SQ29,548 (PerkinElmer, Waltham, Mass., USA) in 50 mM Tris, 4 mM CaCl2, 0.1% ascorbic acid pH 7.5 for 2 hours at 25° C. in 96-well polystyrene plates. Separation of bound from free radioligand was accomplished by rapid vacuum filtration onto 96-well GF/B filter plates (PerkinElmer, Waltham, Mass., USA). Filters were washed 8 times in 50 mM Tris, pH 6.9 and allowed to dry for 16 hours, Plates were sealed and filters dissolved in 50 μL Betaplate Scintillation fluid (PerkinElmer, Waltham, Mass., USA) and read on a scintillation counter. Data are presented as percent total binding as calculated by a minimum of 3 wells containing membrane and ^3H-SQ29,548 without antagonist.
(§4) Equilibrium dissociation constants (Kd), IC50, and Schild regression analyses was performed with GraphPad Prism software (GraphPad Software Inc., La Jolla, Calif., USA).
(§5) To facilitate the characterization of the new compounds, cell-based TP receptor functional assays were optimized. HEK293 clones have been produced that stably express the human (hTP) or mouse (mTP) TP receptor (a isoform), and treatment of these clones with I-BOP ([1S-[1α,2α(Z),3β(1E,3S*),4α]]-7-[3-[3-hydroxy-4-(4-iodophenoxy)-1-butenyl]-7-oxabicyclo[2.2.1]hept-2-yl]-5-heptenoic acid) results in increased production of inositol triphosphate (IP3) (Knezevic, et al., 1993, Blood 82:A156; Shenker, et al., 1991, J Biol Chem 266:9309-9313; Huang, et al., 2004, Cell Signal 16:521-533) which can be quantified by measuring the breakdown product, inositol monophosphates (IP1), using a commercial time-resolved fluorescence assay. […] A radioligand binding assay was also developed to allow for the determination of binding affinities of compounds at the hTP and mTP receptors.

mouse TP receptor [4] = molecular target: T1, mouse TP receptor; assay: Radioligand binding assay (3H-SQ29,548), mouse TP receptor; details: mTP receptor
Experimental: as §2, §3, §4, §5

human TP receptor [5] = molecular target: T2, human TP receptor; assay: IP1 functional HTRF assay, human TP receptor; assay type: cell-based; details: I-BOP stimulated IP1
Experimental: as §1

O=C(O)CCc1cccc2c1CCC(NS(=O)(=O)c1ccc(Cl)cc1)C2 (centres unmarked) [Compound 51280, 3-(6-(4-Chloroplienyistilfonamido)-5,6,7,8-tetrahydronaplithalen-1-yl)propanaic acid]
antagonist activity (mouse TP receptor [1]): potent antagonist
Plasma (compound) [2]: 10376 (+/− 3480) nM
affinity for TP receptor (human TP receptor [3]): high affinity
affinity for TP receptor (mouse TP receptor [4]): high affinity
antagonist activity (human TP receptor [5]): potent antagonist
